Laboratory results as given in ChEMBL document CHEMBL1130815, “Anti-Helicobacter pylori agents. 2. Structure activity relationships in a new series of 2-alkylguanidino-4-furylthiazoles” (1998).
In brackets after ≈: the same amount, converted by molar mass.

Key:
Helicobacter pylori = assay: Compound was evaluated for antimicrobial activity against Helicobacter pylori; format: functional
Clostridioides difficile = assay: Compound was evaluated for antimicrobial activity against Clostridium difficile; format: functional
Neisseria gonorrhoeae = assay: Compound was evaluated for antimicrobial activity against Neisseria gonorrhoeae; format: functional
Campylobacter jejuni = assay: Compound was evaluated for antimicrobial activity against Campylobacter jejuni; format: functional
Neisseria meningitidis = assay: Compound was evaluated for antimicrobial activity against Neisseria meningitidis; format: functional
Clostridium perfringens = assay: Compound was evaluated for antimicrobial activity against Clostridium perfringens; format: functional
Bacteroides fragilis = assay: Compound was evaluated for antimicrobial activity against Bacteroides fragilis; format: functional
Rattus norvegicus = assay: Inhibition of histamine-stimulated gastric acid secretion in lumen-perfused stomach of the anaesthetized rats when administered 1 mg/kg intravenously; format: functional; settings: route intravenous
Canis familiaris = assay: Compound was evaluated for the inhibition of gastrin-stimulated gastric acid secretion in conscious heidenhain pouch dogs when administered 1 mg/kg perorally; format: functional; settings: Canis lupus familiaris, Stomach, route oral
Cavia porcellus = species: Cavia porcellus; assay: Inhibition of histamine-stimulated chronotropic response in the isolated guinea pig right atrium at 1*10e-6 g/mL; format: functional, Cardiac atrium

In the case of `C#CCNC(=N)Nc1nc(-c2ccc(CNC(C)=O)o2)cs1`, the MIC (Helicobacter pylori) is reported as 8.2 µg/mL (≈ 25.8 µM).
Work on `CCOCCCC/N=C(\N)Nc1nc(-c2ccc(CNC(C)=O)o2)cs1` yielded an MIC (Helicobacter pylori) of 1.1 µg/mL (≈ 2.9 µM).
`CC(=O)NCc1ccc(-c2csc(NC(=N)NC3CCCCC3)n2)o1` showed an MIC (Helicobacter pylori) of 1.06 µg/mL (≈ 2.93 µM).
Compound `CC(=O)NCc1ccc(-c2csc(NC(=N)NCC3CC3)n2)o1` has an MIC (Helicobacter pylori) of 1.46 µg/mL (≈ 4.38 µM).
`COCC/N=C(\N)Nc1nc(-c2ccc(CNC(C)=O)o2)cs1` showed an MIC (Helicobacter pylori) of 1.45 µg/mL (≈ 4.3 µM).
`CC(=O)NCc1ccc(-c2csc(NC(=N)NCCN3CCCCC3)n2)o1` gave an MIC (Helicobacter pylori) of 27 µg/mL (≈ 69.1 µM).
Work on `CC(=O)NCc1ccc(-c2csc(NC(=N)NCCO)n2)o1` yielded an MIC (Helicobacter pylori) of 34 µg/mL (≈ 105 µM).
`CCOCC/N=C(\NCCOCC)Nc1nc(-c2ccc(CNC(C)=O)o2)cs1` gave an MIC (Helicobacter pylori) of 81 µg/mL (≈ 191 µM).
In the case of `CCCCOCC/N=C(\N)Nc1nc(-c2ccc(CNC(C)=O)o2)cs1`, the MIC (Helicobacter pylori) is reported as 1.43 µg/mL (≈ 3.77 µM).
Work on `C=CCNC(=N)Nc1nc(-c2ccc(CNC(C)=O)o2)cs1` yielded an MIC (Helicobacter pylori) of 1.45 µg/mL (≈ 4.54 µM).
With `CSCC/N=C(\N)Nc1nc(-c2ccc(CNC(C)=O)o2)cs1` the MIC (Helicobacter pylori) was 1.67 µg/mL (≈ 4.72 µM).
With `CC1(C)S[C@@H]2[C@H](NC(=O)[C@H](N)c3ccc(O)cc3)C(=O)N2[C@H]1C(=O)O` [AMOXICILLIN] the MIC (Clostridioides difficile) was 0.28 µg/mL (≈ 0.766 µM), the MIC (Neisseria gonorrhoeae) was 7.7 µg/mL (≈ 21.1 µM) and the MIC (Campylobacter jejuni) was 2.2 µg/mL (≈ 6.02 µM). It also gave an MIC (Neisseria meningitidis) of 0.056 µg/mL (≈ 0.153 µM), an MIC (Clostridium perfringens) of 0.027 µg/mL (≈ 0.0739 µM) and an MIC (Bacteroides fragilis) of 2.1 µg/mL (≈ 5.75 µM). The MIC (Helicobacter pylori) was 0.021 µg/mL (≈ 0.0575 µM).
For `CN/C(=N\CCSCc1nc[nH]c1C)NC#N` [CIMETIDINE], the inhibition in vivo at 1 mg/kg (Rattus norvegicus) was 22%, the inhibition in vivo at 1 mg/kg (Canis familiaris) was 53% and the Inhibition (Cavia porcellus) was 43%.
`Cc1ncc([N+](=O)[O-])n1CCO` [METRONIDAZOLE] was tested, and the MIC (Clostridioides difficile) was 0.2 µg/mL (≈ 1.17 µM), the MIC (Neisseria gonorrhoeae) was > 100 µg/mL and the MIC (Campylobacter jejuni) was 30 µg/mL (≈ 175 µM). The MIC (Neisseria meningitidis) was > 100 µg/mL, the MIC (Clostridium perfringens) was 1.75 µg/mL (≈ 10.2 µM) and the MIC (Bacteroides fragilis) was 0.59 µg/mL (≈ 3.45 µM). For the same compound, the MIC (Helicobacter pylori) was 5.4 µg/mL (≈ 31.6 µM).
Work on BISMUTH SUBSALICYLATE yielded an MIC (Clostridioides difficile) of 50 µg/mL, an MIC (Neisseria gonorrhoeae) of 4.7 µg/mL and an MIC (Campylobacter jejuni) of 7.4 µg/mL. The MIC (Neisseria meningitidis) was 12.5 µg/mL, the MIC (Clostridium perfringens) was > 100 µg/mL and the MIC (Bacteroides fragilis) was 50 µg/mL. It also gave an MIC (Helicobacter pylori) of 8.7 µg/mL.
